Reference: PubChem BioAssay AID2060882 (Molecular Pharmacology Branch, DTP, NCI, 2025)
pIC50: −log10 of the molar value.

Tested on: 898857-211-R-J1-PDC complex spheroids, growth % test/control
Test: Anticancer human tumor 898857-211-R-J1-PDC patient-derived melanoma cell line growth inhibition [RAS]
Conditions: for pIC50: curve of first compound; for viability, T/C: stronger effect = lower value
Method in brief: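 Multi-cell-type spheroids: tumor cells plus HUVEC endothelial cells and mesenchymal stem cells. RAS-pathway inhibitors were combined with targeted agents, each dosed in half-log steps down from clinical Cmax, or from 10 microM when Cmax was unknown.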
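Further: spheroids exposed to compound for seven days before readout.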
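Wherever viability, T/C is given: 100% = DMSO vehicle control wells.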

SMILES: CC(Nc1ccc2c(c1)OCCn1cc(N3C(=O)OCC3C(F)F)nc1-2)C(N)=O (centres undefined) + C#Cc1c(F)ccc2cc(O)cc(-c3ncc4c(N5CC6CCC(C5)N6)nc(OCC56CCCN5CC(F)C6)nc4c3F)c12
- pIC50 (second compound 0.0316 µM): < 5.00
- pIC50 (second compound 0.1 µM): < 5.00
- pIC50 (second compound 0.316 µM): < 5.00
- pIC50 (second compound 1 µM): < 5.00
- pIC50 (second compound 3.16 µM): < 5.00
- pIC50 (second compound 10 µM): 7.05
- viability, T/C (second compound 0.0316 µM, first compound 0.0316 µM): 96.9%
- viability, T/C (second compound 0.0316 µM, first compound 0.1 µM): 98.4%
- viability, T/C (second compound 0.0316 µM, first compound 0.316 µM): 98.3%
- viability, T/C (second compound 0.0316 µM, first compound 1 µM): 87.7%
- viability, T/C (second compound 0.0316 µM, first compound 3.16 µM): 97.8%
- viability, T/C (second compound 0.0316 µM, first compound 10 µM): 69.4%
- viability, T/C (second compound 0.1 µM, first compound 0.0316 µM): 99.9%
- viability, T/C (second compound 0.1 µM, first compound 0.1 µM): 90%
- viability, T/C (second compound 0.1 µM, first compound 0.316 µM): 99.2%
- viability, T/C (second compound 0.1 µM, first compound 1 µM): 98.4%
- viability, T/C (second compound 0.1 µM, first compound 3.16 µM): 91.6%
- viability, T/C (second compound 0.1 µM, first compound 10 µM): 69.9%
- viability, T/C (second compound 0.316 µM, first compound 0.0316 µM): 106%
- viability, T/C (second compound 0.316 µM, first compound 0.1 µM): 101%
- viability, T/C (second compound 0.316 µM, first compound 0.316 µM): 92.5%
- viability, T/C (second compound 0.316 µM, first compound 1 µM): 94.2%
- viability, T/C (second compound 0.316 µM, first compound 3.16 µM): 87.3%
- viability, T/C (second compound 0.316 µM, first compound 10 µM): 71.3%
- viability, T/C (second compound 1 µM, first compound 0.0316 µM): 108%
- viability, T/C (second compound 1 µM, first compound 0.1 µM): 99.8%
- viability, T/C (second compound 1 µM, first compound 0.316 µM): 104%
- viability, T/C (second compound 1 µM, first compound 1 µM): 94.7%
- viability, T/C (second compound 1 µM, first compound 3.16 µM): 83.4%
- viability, T/C (second compound 1 µM, first compound 10 µM): 65.2%
- viability, T/C (second compound 3.16 µM, first compound 0.0316 µM): 98.1%
- viability, T/C (second compound 3.16 µM, first compound 0.1 µM): 89.2%
- viability, T/C (second compound 3.16 µM, first compound 0.316 µM): 94.3%
- viability, T/C (second compound 3.16 µM, first compound 1 µM): 96.3%
- viability, T/C (second compound 3.16 µM, first compound 3.16 µM): 82.8%
- viability, T/C (second compound 3.16 µM, first compound 10 µM): 72.4%
- viability, T/C (second compound 10 µM, first compound 0.0316 µM): 59.6%
- viability, T/C (second compound 10 µM, first compound 0.1 µM): 39.3%
- viability, T/C (second compound 10 µM, first compound 0.316 µM): 47.1%
- viability, T/C (second compound 10 µM, first compound 1 µM): 40.1%
- viability, T/C (second compound 10 µM, first compound 3.16 µM): 32%
- viability, T/C (second compound 10 µM, first compound 10 µM): 20.5%

SMILES: C=CC(=O)Nc1cc(Nc2nccc(-c3cn(C)c4ccccc34)n2)c(OC)cc1N(C)CCN(C)C + CCn1c(-c2cc(N3CCN(C)CC3)cnc2C(C)OC)c2c3cc(ccc31)-c1csc(n1)CC(NC(=O)C1CC1C)C(=O)N1CCCC(N1)C(=O)OCC(C)(C)C2
- pIC50 (second compound 0.000949 µM): 6.08
- pIC50 (second compound 0.003 µM): 6.42
- pIC50 (second compound 0.00949 µM): 6.27
- pIC50 (second compound 0.03 µM): 6.25
- pIC50 (second compound 0.0949 µM): 6.23
- pIC50 (second compound 0.3 µM): 6.22
- viability, T/C (second compound 0.000949 µM, first compound 0.00316 µM): 101%
- viability, T/C (second compound 0.000949 µM, first compound 0.01 µM): 101%
- viability, T/C (second compound 0.000949 µM, first compound 0.0316 µM): 106%
- viability, T/C (second compound 0.000949 µM, first compound 0.1 µM): 102%
- viability, T/C (second compound 0.000949 µM, first compound 0.316 µM): 73.7%
- viability, T/C (second compound 0.000949 µM, first compound 1 µM): 45.5%
- viability, T/C (second compound 0.003 µM, first compound 0.00316 µM): 99%
- viability, T/C (second compound 0.003 µM, first compound 0.01 µM): 113%
- viability, T/C (second compound 0.003 µM, first compound 0.0316 µM): 97%
- viability, T/C (second compound 0.003 µM, first compound 0.1 µM): 88.9%
- viability, T/C (second compound 0.003 µM, first compound 0.316 µM): 52.4%
- viability, T/C (second compound 0.003 µM, first compound 1 µM): 34.9%
- viability, T/C (second compound 0.00949 µM, first compound 0.00316 µM): 105%
- viability, T/C (second compound 0.00949 µM, first compound 0.01 µM): 112%
- viability, T/C (second compound 0.00949 µM, first compound 0.0316 µM): 114%
- viability, T/C (second compound 0.00949 µM, first compound 0.1 µM): 88.9%
- viability, T/C (second compound 0.00949 µM, first compound 0.316 µM): 65.5%
- viability, T/C (second compound 0.00949 µM, first compound 1 µM): 33.7%
- viability, T/C (second compound 0.03 µM, first compound 0.00316 µM): 102%
- viability, T/C (second compound 0.03 µM, first compound 0.01 µM): 96.2%
- viability, T/C (second compound 0.03 µM, first compound 0.0316 µM): 110%
- viability, T/C (second compound 0.03 µM, first compound 0.1 µM): 91.3%
- viability, T/C (second compound 0.03 µM, first compound 0.316 µM): 64.7%
- viability, T/C (second compound 0.03 µM, first compound 1 µM): 35.6%
- viability, T/C (second compound 0.0949 µM, first compound 0.00316 µM): 106%
- viability, T/C (second compound 0.0949 µM, first compound 0.01 µM): 104%
- viability, T/C (second compound 0.0949 µM, first compound 0.0316 µM): 101%
- viability, T/C (second compound 0.0949 µM, first compound 0.1 µM): 96%
- viability, T/C (second compound 0.0949 µM, first compound 0.316 µM): 60.5%
- viability, T/C (second compound 0.0949 µM, first compound 1 µM): 41.1%
- viability, T/C (second compound 0.3 µM, first compound 0.00316 µM): 125%
- viability, T/C (second compound 0.3 µM, first compound 0.01 µM): 114%
- viability, T/C (second compound 0.3 µM, first compound 0.0316 µM): 102%
- viability, T/C (second compound 0.3 µM, first compound 0.1 µM): 97%
- viability, T/C (second compound 0.3 µM, first compound 0.316 µM): 64.7%
- viability, T/C (second compound 0.3 µM, first compound 1 µM): 36.2%
